According to US20200222418A1, “USE OF PHENOTHIAZINE DERIVATIVE IN THE TREATMENT OF INFECTION CAUSED BY BACTERIA CARRYING TYPE IV PILI” (priority 2017, published 2020):

Experiments:
[1] = test system: Nm2C4.3 microcolonies on HBMEC, human bone marrow endothelial cell line; assay: Dispersion of meningococcal microcolonies on HBMEC (vascular colonisation index); format: cell-based, Neisseria meningitidis; settings: 30 min, Trifluoperazine 10-40 μM, Gentamicin 150 μg/ml, Cefotaxim 20 μg/ml
Experimental: Human […] microvascular endothelial cells (HBMEC) were infected with Nm2C4.3 for 1 h 30, treated with Trifluoperazine (10-40 μM) for 30 minutes, before fixation and immunofluorescence analysis using anti-Nm2C4.3 antibody and Alexa Fluor 633 Phalloidin. (A) Representative fluorescence microscopy showing bacterial colony (white dots) formed at the surface of the endothelial cells. (B) Quantification of the bacterial colonization was performed using Image J software.
HBMEC, a human endothelial cell line isolated from […] capillaries (Schweitzer et al., 1997) were grown in Dulbecco's Modified Eagle Medium (DMEM) 4.5 g/L-Glutamax (ThermoFischer) 10% FBS. Cells were grown on Thermanox coverslips coated with gelatin 2% (BD Difco #214340) for 2 days to reach confluency. Cells were then infected with a suspension of Nm2C4.3 (˜10^7 CFU/ml) in DMEM/FBS during 30 minutes to allow bacterial adhesion. Cells were then washed three times with medium to remove non-adherent bacteria and infection was pursued for 1 h 30: adherent bacteria grew at the endothelial cell surface and formed micro-colonies. Trifluoperazine was then added to obtain final concentrations of 10, 20, 30 and 40 μM. After incubation for 30 minutes, cells were washed and fixed in 4% Paraformaldehyde for 10 min, washed three times with PBS, and permeabilized with 0.1% Triton X-100 in PBS for 10 min. Cells were blocked for 30 min with 3% BSA in PBS and were incubated for 2 h with the primary antibodies (Rabbit polyclonal anti-Nm2C4.3 strain, kindly provided by Dr X. Nassif, INEM, Paris). After three washes with PBS, cells were incubated for 1 h with […] anti-rabbit IgG (Jackson ImmunoResearch Laboratories), together with Alexa Fluor 633 Phalloidin (Thermofischer) and DAPI ([…], Sigma Aldrich) to stain Actin and nuclei, respectively. Labelled preparations were mounted in Glycergel media (DAKO) and image acquisitions were performed with a DM16000 microscope (Leica, X40). Quantification was done with ImageJ software (NIH). […]

[2] = test system: meningococcal colonization of the human dermal vasculature; assay: In vivo meningococcal infection of mice engrafted with human skin
[3] = test system: Nm2C4.3 adhesion to human dermal microvascular endothelial cells (HDMECs); assay: Adhesion of pretreated meningococci to endothelial cells; format: cell-based, Neisseria meningitidis; settings: bacteria pre-treated with 30 μM for 30 minutes
Experimental: Nm2C4.3 grown in suspension were pretreated in the absence or in the presence of 30 μM Trifluoperazine for 30 minutes before adhesion to human dermal microvascular endothelial cells (HDMECs) for 30 minutes. Infection was allowed to proceed for further 30, 60 or 90 minutes before fixation and immunostaining using anti-Nm2C4.3 antibody and Alexa Fluor 633 Phalloidin. (A) Representative fluorescence microscopy showing bacterial colony (white dots) formed at the surface of the endothelial cells. (B) Quantification of the bacterial colonization was performed using Image J software.

[4] = test system: HBMECs infected with meningococci; assay: PECAM-1 recruitment at bacterial adhesion sites in infected HBMEC; format: cell-based, human; settings: 5 μM for 2 h during infection
Experimental: (A) Monolayers of HBMECs were non-infected or infected for 2 h with meningococci and the effect on the localisation of the endothelial cell junction proteins PECAM-1 and […]-catenin was analysed by immunofluorescence analysis. Arrows point at PECAM-1 molecules recruited at bacterial adhesion sites (B) HBMECs were infected for 2 h with meningococci in the presence or in the absence of 5 μM Trifluoperazine and the effect on junctional PECAM-1 and on the endothelial cell cytoskeleton remodelling (Ezrin, Actin) was analysed by immunofluorescence analysis. (C) Quantification of Actin and PECAM-1 recruitment at sites of bacterial adhesion was performed using Image J software.
When indicated, HBMECs were grown on Thermanox coverslips coated with gelatin 2% for 2 days to reach confluency. Cells were then infected as above described in the presence or in the absence of 5 μM Trifluoperazine for 2 h. Cells were washed and fixed in 4% paraformaldehyde and immunolabelling was performed with a polyclonal antisera raised anti-Nm2C4.3 strain, anti-human PECAM-1 mouse monoclonal, clone HEC7 (ABCAM ab119339) or rabbit polyclonal 177 raised against PECAM-1, obtained from WA Muller (Northwestern University, Chicago, Ill., US), anti-0 catenin (05-482, UBI), polyclonal antisera raised against Ezrin, Alexa Fluor 633 Phalloidin. […] Quantifications were done using ImageJ software (NIH).

[5] = test system: N. meningitidis 2C4.3 wild type strain type IV pili; assay: Surface expression of type IV pili by transmission electron microscopy, wild type; format: cell-based, Neisseria meningitidis; settings: 50 μM Trifluoperazine for 30 minutes, wild type 2C4.3
Experimental: N. meningitidis 2C4.3 wild type strain and the isogenic derivative mutant PilT ([…]PiIT) were grown in liquid culture […] electron microscopy. Arrows point at bundles of type IV pili expressed at the bacterial surface.
N. meninigitidis 2C4.3 strain and the isogenic derivative mutant PilT, where the pilT gene was interrupted by an erythromycin-resistance cassette (Pujol et al., 1999), were grown in suspension in DMEM medium supplemented with 10% heat-inactivated fetal calf serum. PilT belongs to a highly conserved protein family homologous to AAA-type motor proteins and is proposed to cause the retraction of type IV pili by disassembling the pilin subunits at the base of the fiber (Morand et al., 2004). […] The effect on bacterial aggregates were visualized over time using a phase-contrast microscope or the bacterial suspensions were fixed in 4% Paraformaldehyde for 10 min, centrifuged at 1000 rpm for 5 minutes and the bacterial pellets washed in PBS. After negative staining with 1% phosphotungstic acid, bacteria were analysed by transmission electron microscopy, using a JEOL 1011 microscope.

Compound | dispersion of compact meningococcal microcolonies established at the endothelial cell surface [1] | colonization of the human dermal vasculature [2] | incidence of vascular alteration [2] | signs of intravascular coagulation [2] | hallmark of vascular inflammation ([2]; alone or in combination with cefotaxime) | adhesion to and colony formation at the endothelial cell surface [3] | PECAM-1 recruitment at bacterial adhesion sites [4] | bacterial colonization [4] | type IV pili expressed on bacterial surface [5]
CN[C@@H]1[C@@H](O)C(O[C@@H]2[C@@H](O)[C@H](O[C@H]3O[C@H]([C@@H](C)NC)CC[C@H]3N)[C@@H](N)C[C@H]2N)OC[C@]1(C)O (stereo partly drawn) [Gentamicin, (3R,4R,5R)-2-{[(1S,2S,3R,4S,6R)-4,6-diamino-3-{[(2R,3R,6S)-3-amino-6-[(1R)-1-(methylamino)ethyl]oxan-2-yl]oxy}-2-hydroxycyclohexyl]oxy}-5-methyl-4-(methylamino)oxane-3,5-diol] | poorly induced the dispersion |  |  |  |  |  |  |  | 
CN1CCN(CCCN2c3ccccc3Sc3ccc(C(F)(F)F)cc32)CC1 [Trifluoperazine] | induced their dispersion | prevents the massive colonization | reduces incidence of vascular alteration | reduces the signs of intravascular coagulation | drastically reduced | did no longer adhere to and/or form bacterial colony | prevented PECAM-1 recruitment | did not affect bacterial colonization | no longer observed
